Earlier results in US10300017B2, “Method and composition for treating cystitis” (Nanologix Research, Inc., priority 2012, dated 2019).

Key:
interstitial cystitis = details: 20 patients heparin 40,000 units, 20 patients 100 mg Elmiron, 80 mg lidocaine, 3 cc sodium bicarb
[1] = oral

Row | Substance | response to therapy (symptom relief), comparison of the two intravesical solutions (interstitial cystitis) | fraction absorbed that reaches the circulation (administered orally) | fraction of the administered dose recovered as intact drug in urine (mean) (oral dose) | mean of an oral dose excreted in the urine (oral dose, mostly as desulfated and depolymerized metabolites) | systemic side effects [1]
1 | heparin | no significant difference between the two solutions | – | – | – | –
2 | pentosan polysulfate [Elmiron®] | no significant difference between the two solutions | 6% | 0.14% | 6% | hair loss, GI intolerance, headache, rash, sleep disturbance, and vertigo
